The values below come from ChEMBL document CHEMBL4706603, “Discovery of VEGFR-2 inhibitors exerting significant anticancer activity against CD44+ and CD133+ cancer stem cells (CSCs): Reversal of TGF-β induced epithelial-mesenchymal transition (EMT) in hepatocellular carcinoma” (Eur J Med Chem, 2020).

Data set [1] in a line: Retention time in Wistar rat plasma by HPLC-MS analysis. The data set is classed as ADME, cell-free.
Data set [2] in a line: Toxicity in Wistar rat assessed as normal histoarchitecture of alveoli and bronchi in lungs without inflammatory or pathological changes at 2000 mg/kg, po and measured on day 15 by microscopic analysis. It is filed as organism-based. The conditions noted are these: in vivo, 360 h, time 15 day.
In a further data set the test system is HepG2. The data set can be described thus: Antimigratory activity against human HepG2 cells assessed as reduction in cell migration at IC50 by transwell migration assay. The data set is classed as functional, cell-based. Conditions: TDE = time-dependent effect.

Each structure is given as a SMILES string.

The compound `CC(=O)Nc1ccc(Oc2cccc3c(NC(=O)Nc4cccc(C(F)(F)F)c4)cccc23)cc1` came in with a Retention_time in data set [1] of 10.17 min. Also, the figures for the Activity result (in data set [2]; in the data set on HepG2) were “Non-Toxic” and “Tde”, respectively.
